From patent publication US11912645B2, “Lipopeptide compounds for the treatment of pain disorders” (INSERM (Institut National de la Santé et de la Recherche …, priority 2017, dated 2024)

System: Caco-2 cells
Test: CXCL8 secretion by Caco-2 cells (ELISA)
Format: cell-based, human
Conditions: 1, 10, 100 μM; 24 hours
Experimental: FIG. 5: C12-Asn-GABA crosses the epithelial barrier without modifying epithelial cells physiology. Caco-2 cells were cultivated into transwell chambers. After treatment with C12-Asn-GABA (800 ng) at the apical side, C12-Asn-GABA was quantified inside the cells and both the apical and basolateral compartments by LC-MS/MS (A); data are represented as mean±SEM, n=3 experiments of 3 wells per condition. Extracted ion chromatogram at the exact mass of GABA (104.0702 m/z) with a mass accuracy of 5 ppm of the GABA commercial standard (GABA (Std.) and apical and basolateral compartments after loading or not Caco-2 cells with 800 ng of GABA at the apical site (B); representation of one well, n=3 experiments of 3 wells per condition. Paracellular permeability assessed by the passage of FITC-dextran loaded at the apical side (C) and CXCL8 secretion assessed by ELISA (D) were monitored after treatment of Caco-2 cells at the apical side with C12-Asn-GABA (10 μM); data are represented as mean±SEM, n=3 experiments of 3 wells per condition. […]
To assess the effect of C12-Asn-GABA on paracellular permeability, transport of dextran 4 kDa FITC across a Caco-2 cell monolayer was investigated. […] In parallel, the release of CXCL8 from Caco-2 cells into the medium, of both apical and basolateral sides of the transwell, was assessed by ELISA. […]

## CCCCCCCCCCCC(=O)NC(CC(N)=O)C(=O)NCCCC(=O)O (stereo not shown) [C12-Asn-GABA, C11 C(O)-Asn-gamma-aminobutyric acid]
  secretion of CXCL8 (apical and basolateral): None of the tested doses (1, 10, 100 μM) and neither the vehicle modified the secretion of CXCL8
